US12410124B2 (priority 2019, dated 2025)

Legend:
Assay type in all cases: in vivo
substantia nigra CD11b = test: Number of substantia nigra microglial cells with CD11b positive expression in MPTP Parkinson's disease model mouse (immunohistochemistry); conditions: substantia nigra, MPTP Parkinson's disease model mouse, immunohistochemistry
Method: (§1) Neurotoxins can be used to establish PD animal models. Currently, 1-methyl-4-phenyl-1,2,3,6-tetrahydropyridine (MPTP) is the sole synthetic toxin which is recognized to induce PD symptoms in human and non-human primates and in mice. Using MPTP subacute modeling method, C57BL/6J male mice were intraperitoneally injected with MPTP 30 mg/kg, once a day for 5 consecutive days. The experiment animals were divided into blank control group, MPTP model group, and compound treatment group. For the […] compound treatment group, the compound was administrated by gavage for 21 consecutive days after the completion of modeling; for the MPTP model group, the normal saline was administrated by gavage for 21 consecutive days after the completion of modeling; and for the blank control group, the normal saline was first intraperitoneally injected for 5 days, and then administrated by gavage for 21 days.
(§2) Neuron-glial cell network homeostasis disorder is an important factor for the selective and progressive death of substantia nigra dopaminergic neurons in PD. In the neurotoxic effect of MPTP, the excessive activations of microglial cells and astrocytes produce a variety of inflammatory cytokines and reactive oxygen species (ROS). These inflammatory factors and ROS amplify their respective toxicities and mediate malignant feedback loop, causing a cascade inflammation response and aggravating the pathological process of PD. CD11b and GFAP are the marker proteins for activations of microglial cells and astrocytes, respectively. Therefore, the effect of the target compounds on the activations of the microglial cells and astrocytes in the substantia nigra, hippocampus, and midbrain areas of MPTP-induced PD mice can be investigated, to explore the mechanism of the anti-PD effect of the target compounds by inhibiting the neuroinflammation.
(§3) Half of experiment mice in each group were taken to separate the midbrain after perfusion and fixation. The tissue was trimmed, and the substantia nigra area was taken to prepare paraffin sections. The CD11b immunohistochemical staining was performed for the statistics of the change in the number of microglial cells with CD11b positive expression. The experiment included blank control group, MPTP model group, positive control group (caffeic acid phenethyl ester, CAPE), prototype control group (styryl sulfone compounds 3B, 3C, 3D, and 3G, whose structures are shown as above), and target compound group.

midbrain TH = test: Midbrain TH expression in MPTP Parkinson's disease model mouse (western-blotting); conditions: midbrain total protein, GAPDH internal reference, gavage 21 days after MPTP modeling
Method: as §1
(§4) The main cause of PD lies in the pathological changes in the substantia nigra-striatum projection system of the brain and the progressive degeneration and loss of dopaminergic neurons. Tyrosine hydroxylase (TH) is the first enzyme in the biosynthesis of catecholamine neurotransmitters, as well as the first rate-limiting enzyme in the dopamine synthesis. It plays an important role in the synthesis and metabolism of the neurotransmitter DA. The TH in PD animal models and patients has a wide range of abnormal changes, from the gene expression to the enzyme protein content and enzyme activity. The detection of the TH expression in the midbrain and substantia nigra of PD model mice can be used to evaluate the neuroprotective activity of the compound.
Half of experiment mice in each group were taken to extract the total midbrain protein, and the change in the midbrain TH was determined by western-blotting using GAPDH as the internal reference. The experiment included blank control group, MPTP model group, positive control group (caffeic acid phenethyl ester, CAPE), prototype control group (styryl sulfone compounds 3B, 3C, 3D, and 3G, whose structures are shown as above), and target compound group.

substantia nigra pp38 = test: Substantia nigra pp38 protein expression in MPTP Parkinson's disease model mouse (immunofluorescence); conditions: percentage of mean intensity of blank control group, gavage 21 days after MPTP modeling
Method: as §1
The p38 mitogen-activated protein kinase (p38 MAPK) is expressed in both neurons and glial cells, and is the intersection point of neuron-glial cell network information regulations. The activation of p38 signaling pathway is an important initiator of neuronal degeneration, which continuously induces the apoptosis of dopaminergic neurons in multiple ways. It has become a research hotspot for the treatment of PD. Studies have shown that the protective mechanism of CAPE against the death of primary cultured cerebellar granule neurons induced by glutamate lies in inhibiting the activation of p38 phosphorylation and in turn inhibiting the activation of the caspase 3 apoptotic pathway to prevent neuronal apoptosis. Therefore, the MPTP-induced PD mouse model can be used to investigate the inhibitory effect of the target compounds on the activation of p38 phosphorylation on the overall animal level.
as §3, with “nigra-striatum” for “nigra”, “double immunofluorescence” for “CD11b immunohistochemical”, “staining for TH and phosphorylated p38” for “staining”, “performed to observe the coexpression of TH and phosphorylated p38,” for “performed”, “phosphorylated p38 protein” for “number of microglial cells with CD11b positive”

hippocampus GFAP = test: Number of hippocampus astrocytes with GFAP positive expression in MPTP Parkinson's disease model mouse (immunohistochemistry); conditions: hippocampus, MPTP Parkinson's disease model mouse, immunohistochemistry
Method: as §1, §2
as §3, with “hippocampus” for “substantia nigra”, “GFAP” for “CD11b”, “astrocytes” for “microglial cells”

hippocampus CD11b = test: Number of hippocampus microglial cells with CD11b positive expression in MPTP Parkinson's disease model mouse (immunohistochemistry); conditions: hippocampus, MPTP Parkinson's disease model mouse, immunohistochemistry
Method: as §1, §2
as §3, with “hippocampus” for “substantia nigra”

substantia nigra TH = test: Substantia nigra TH expression in MPTP Parkinson's disease model mouse (immunofluorescence); conditions: percentage of mean intensity of blank control group, gavage 21 days after MPTP modeling
Method: as §1, §4
as §3, with “nigra-striatum” for “nigra”, “TH immunofluorescence” for “CD11b immunohistochemical”, “performed” for “performed for the statistics of the change”, “brain sections” for “number”, “mice in each group. […]” for “microglial cells with CD11b positive expression.”

midbrain CD11b = test: Midbrain CD11b protein expression in MPTP Parkinson's disease model mouse (western-blotting); conditions: midbrain, MPTP Parkinson's disease model mouse, western-blotting
Method: as §1, §2
[…] The experiment included blank control group, MPTP model group, positive control group (caffeic acid phenethyl ester, CAPE), prototype control group (styryl sulfone compounds 3B, 3C, 3D), and 3G, whose structures are shown as above), and target compound group.

| Molecule | Positive cell number (microglial cells with CD11b positive expression) (substantia nigra CD11b) | Expression (TH/GAPDH) (midbrain TH) | Expression (Immunofluorescence intensity %) (substantia nigra pp38) [%] | Positive cell number (astrocytes with GFAP positive expression) (hippocampus GFAP) | Positive cell number (microglial cells with CD11b positive expression) (hippocampus CD11b) | Expression (Immunofluorescence intensity %) (substantia nigra TH) [%] | Expression (CD11b/GAPDH) (midbrain CD11b) |
| --- | --- | --- | --- | --- | --- | --- | --- |
| COc1cc(/C=C/S(=O)(=O)Cc2cc(OC)c(OC)c(OC)c2)ccc1OC(=O)N(c1ccccc1)c1ccccc1 [Compound K3-3, (E)-2-methoxy-4-{2-[(3,4,5-trimethoxyphenyl)mesyl]ethenyl}-phenyl-N,N-diphenylcarbamate] | 39 ± 3 | 1.15 ± 0.05 | 111.17 ± 9.62 | 69 ± 3 | 18 ± 1 | 98.53 ± 3.08 | 1.15 ± 0.07 |
| CC[Si](CC)(Oc1ccc(C(Cl)S(=O)(=O)/C=C/c2ccc(OC(=O)N3CC(C)OC(C)C3)c(OC(=O)c3cccc(Cl)c3OC)c2)cc1)c1ccccc1 (stereo not drawn) [Compound R1-5, (E)-4-{2-[4-(diethylphenylsiloxy)phenylchloromesyl]ethenyl}-2-(3-chloro-2-methoxybenzoyloxy)phenyl-2,6-dimethylmorpholine-4-carboxylate] | 39 ± 6 | 0.94 ± 0.03 | 101.93 ± 7.44 | 80 ± 2 | 17 ± 2 | 92.45 ± 3.93 | 1.25 ± 0.08 |
| O=C(NC(=O)C(F)(F)F)Oc1ccc(/C=C/S(=O)(=O)C(F)(F)c2ccc(Oc3ccccn3)cc2)cc1OC(=O)C(F)(F)C(F)(F)F [Compound L1-4, (E)-5-{2-[(4-[pyridin-2-yl-oxy]phenyl)difluoromethylsulfonyl]ethenyl}-2-[N-(2,2,2-trifluoroacetyl)carbamoyloxy]phenyl-2,2,3,3,3-pentafluoropropionate] | 35 ± 2 | 0.79 ± 0.04 | 62.93 ± 17.51 | 76 ± 4 | 15 ± 2 | 83.22 ± 5.98 | 1.09 ± 0.09 |
| (E)-2-[(methylamino)methoxy]-4-{2-[1-(4′-nitro-[1,1′-biphenyl]-4-yl)ethylsulfonyl]ethenyl}phenylcarbamate [Compound M1-3] | 33 ± 5 | 0.84 ± 0.06 | 100.22 ± 14.12 | 57 ± 3 | 12 ± 2 | 84.07 ± 3.19 | 0.84 ± 0.06 |
| O=S(=O)(/C=C/c1ccc(O)c(O)c1)Cc1ccc(C(F)(F)F)cc1 [Compound 3B, (E)-4-{2-[(4-trifluoromethylphenyl)mesyl]ethenyl}benzene-1,2-diol, reference compound] | 44 ± 5 | 0.53 ± 0.03 | 134.70 ± 31.07 | 118 ± 8 | 16 ± 2 | 83.18 ± 5.87 | 1.31 ± 0.10 |
| COc1ccc(CC(=O)Oc2ccc(C(N)CS(=O)(=O)/C=C/c3ccc(OC(C)(C)C)c(OC(=O)N(C)c4ccccc4)c3)cc2)cc1 (stereo not drawn) [Compound P1-3, (E)-4-{1-amino-2-[4-t-butoxy-3-(N-methyl-N-phenylcarbamoyloxy)styrylsulfonyl]ethyl}phenyl-2-(4-methoxyphenyl)acetate] | 31 ± 4 | 0.77 ± 0.03 | 81.90 ± 9.52 | 74 ± 3 | 16 ± 2 | 79.20 ± 6.53 | 1.09 ± 0.08 |
